The text below walks through data of paper PMC8300810, “Antibacterial Residue Excretion via Urine as an Indicator for Therapeutical Treatment Choice and Farm Waste Treatment” (Antibiotics, 2021).

Data set [1] in a line: Antimicrobial excretion in urine of treated pigs through the withdrawal period, LC-MS/MS. The method, then: Each of these compounds was administered via intramuscular (IM) injection.
A total of 66 previously untreated piglets were procured at treatment onset. Starting at 40 days before administration of the compounds, they were kept on the premises of the Faculty of Veterinary Sciences at the University of Zaragoza (Zaragoza, Spain) and used in tandem for another study. […] From them, 39 were female and 27, male. During acclimatization and withdrawal periods, the piglets were fed ad libitum with a special mixed feed free of antibiotics (ARS Alendi S.A., Huesca, Spain), and water was provided from a separate, controlled water circuit. Piglets were raised in separate pens depending on the antibiotic with which they were administrated.
Urine was collected on different days within the withdrawal period determined by the respective antimicrobial drug manufacturers. It was collected from live pigs via mobilization of the animal and bladder stimulation. At pre-set time intervals, pigs were slaughtered and urine was obtained via bladder puncture; at the same time, urine was gathered from living animals subjected to the same treatment and withdrawal period. Consequently, urine was collected from 1 to 9 pigs on each day of analysis. As animals were bred in batches and slaughtered all along the withdrawal period, the number of sampled animals decreased as the withdrawal period progressed. Samples were kept aliquoted and frozen at −20 °C until analysis.
1.5 mL of urine were spiked with 100 µL of IS spiking solution. 100 µL 0.1M EDTA and 5 mL of purified water were added and mixed. 500 µL were taken and further diluted with 1500 µL of purified water. It was filtered through 0.2 µm directly into HPLC vials.
All urine samples were analysed using a SCIEX Exion LC coupled to a TripleQuad 6500+ triple quadrupole detector equipped with an Acquity UPLC® BEH C18 column (1.7 µm, 2.1 × 100 mm). The mobile phase consisted of eluent A (0.1% formic acid in water) and eluent B (0.1% formic acid in acetonitrile) at a flow rate of 0.4 mL min^−1. […] The injected volume was 5 µL. Positive electrospray ionisation was used, and analytes were detected in MRM mode by monitoring 2 transitions for each compound of interest (Table 3). Regardless of the compound analysed, the technique’s limit of detection (LoD) was 10 ppb.
For each day of the withdrawal period pre-set in this study to evaluate the behaviour of antimicrobials, 1 to 9 samples of urine coming from different animals subjected to the same treatment and withdrawal period were analysed via LC-MS/MS.
The rates of elimination (λz) of antibiotics from urine were determined via regression analysis. The corresponding half-lives of elimination(T1/2) were calculated according to the following equation:
Equation (1): Half-life of elimination where T1/2 is the half-life of elimination and λZ is the rate of elimination. (1) T1/2=Ln (2)/λz

Data set [2] in a line: Concentration in urine compared with muscle of treated pigs. Format: in vivo. Conditions: Figure 4. The source says:
Urine samples were obtained in parallel with muscle and blood samples gathered for the study performed by Serrano et al.. That study’s aim was to find a suitable matrix for ante mortem tests for the detection of antimicrobial compounds, which would avoid the slaughter of contaminated animals and thus the entrance of antimicrobial compounds into the food chain. The matrix should be characterized via an easy extraction procedure from living animals and a good correlation with the concentration found in muscle. […] These findings agree with those described previously by Seymour et al. for cows: urine samples from treated cows tested positive for the presence of antimicrobial residues even after the end of the withdrawal period set by the manufacturer. Moreover, this issue could also be interpreted as the occurrence of higher levels of antimicrobials in urine compared to other tissues such as muscle.
With the exception of sulfamethoxypyrydazine, concentrations described in urine were much higher than the ones described for muscle.

The conditions of data set [3]: cited from earlier work.
The mark [4] stands for this setting: both, Landrace × Large White, pig, in vivo.

As for `COc1ccc(NS(=O)(=O)c2ccc(N)cc2)nn1` [Sulfamethoxypyridazine], the total urine elimination result in data set [1] (setting [4]) is on record as “ca. 1 weeks”.
With `CCN1CCN(c2cc3c(cc2F)c(=O)c(C(=O)O)cn3C2CC2)CC1` [Enrofloxacin], the “concentrations in urine compared to muscle” value in data set [2] was “much higher”. Moreover, the total urine elimination result in data set [1] (setting [4]) is listed as “ca. 3 weeks”. Besides, the “time period required to complete the excretion by urine (in words)” value in data set [1] (urine, pigs, estimated from the regression) is “almost three weeks”.
In general, half-life refers to the time needed for the level to fall by half in the phase considered. A low value points to fast loss. Take `CN(C)[C@@H]1C(O)=C(C(N)=O)C(=O)[C@@]2(O)C(O)=C3C(=O)c4c(O)cccc4[C@@](C)(O)[C@H]3[C@H](O)[C@@H]12` [Oxytetracycline]: the “concentrations in urine compared to muscle” value in data set [2] is on record as “much higher”. In data set [3], the “fraction of administered antibiotic eliminated in the faeces” value is listed as 40% and the “fraction of administered antibiotic excreted in urine via glomerular filtration” value is 60%. Moreover, in data set [1] (setting [4]), the “elimination period in urine” value is recorded as “over 2 months”. The half-life in data set [1] (both, Landrace × Large White, pig, urine, im) was 100 h. Moreover, in data set [1] (pig, in vivo), the “concentration in urine at the beginning of the withdrawal period (comparison among compounds)” value is on record as “highest concentrations” and the “time period required to complete the excretion by urine (in words)” value is “more than two months”.
